Source: patent US10176292B2, “STING crystals and modulators” (MEMORIAL SLOAN-KETTERING CANCER CENTER, priority 2013, dated 2019)

What was measured:
[1] = target: T1, wt hSTING (Homo sapiens, UniProt Q86WV6, H232R); experiment: Real-time PCR in STING^Gt/Gt BMDCs transduced with wt hSTING; format: cell-based; details: 50 μg/ml DMXAA, 3 hours
T1 construct: expressed in transfected cells; host or cells: bone marrow-derived dendritic cells of STING^Gt/Gt mice, retroviral transduction (pQCXIP-HA)
Method: (§1) The protocol for generation of bone marrow-derived dendritic cells was described before (Dai et al., 2014). […] BMDCs (1×10^6 cells/well) were infected with retroviruses expressing hSTING (wt and various substitution mutants).
(§2) hSTING cDNAs were cloned into pQCXIP-HA vector. In vitro packaging system was used to generate retroviruses according to protocol (Clontech). BMDCs (1×10^6 cells/well) were seeded into 6-well plates and infected with retroviruses. […] CXCL10 protein level was determined by ELISA.

[2] = target: T2, hSTING G166S (Homo sapiens, UniProt Q86WV6, G166S/H232R); experiment: IFN-β luciferase reporter, hSTING G166S; format: cell-based; details: 0.18 mM DMXAA, 12 hours
T2 construct: Full-length hSTING (wt and substitutions) and mSTING (wt) constructs were used for this cellular assay; expressed in transfected cells; host or cells: 293T
T2 sequence (Q86WV6 whole entry G166S/H232R): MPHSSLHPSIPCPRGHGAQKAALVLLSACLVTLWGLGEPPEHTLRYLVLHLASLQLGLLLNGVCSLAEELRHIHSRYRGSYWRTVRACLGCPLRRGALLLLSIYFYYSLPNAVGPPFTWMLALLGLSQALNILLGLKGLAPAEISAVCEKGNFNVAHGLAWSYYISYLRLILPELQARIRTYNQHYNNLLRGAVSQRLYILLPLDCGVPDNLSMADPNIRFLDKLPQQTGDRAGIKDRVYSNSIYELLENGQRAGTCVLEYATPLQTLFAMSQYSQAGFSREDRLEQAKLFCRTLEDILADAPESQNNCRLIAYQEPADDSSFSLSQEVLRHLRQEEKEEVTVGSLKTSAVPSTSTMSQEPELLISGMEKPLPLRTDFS
Method: (§3) Luciferase assays for DMXAA experiments were performed as described above. Briefly, 3×10^4 293T cells were reverse-transfected with STING constructs (5 ng per 96-well) and reporter constructs (50 ng pIFNβ-Gluc, 10 ng pLenti-EF1-Fluc for normalization, 35 ng pMAX-empty as stuffer, delivered with TransIT-LT1, MirusBio, Madison Wis.). […] 12 hours after stimulation with STING-ligands, cells were resuspended in passive lysis buffer and luciferase activity was determined using the respective substrates Coelenterazine and D-Luciferin (PJK, Kleinblittersdorf, Germany). Gaussia Luciferase values were then normalized to constitutive Firefly Luciferase values (resulting in Relative Light Units, RLU).

[3] = target: T3, hSTING^G230I (Homo sapiens, UniProt Q86WV6, G230I/H232R); experiment: IFN-β luciferase reporter, hSTING^G230I; format: cell-based; set-up: Full-length hSTING (wt and substitutions) and mSTING (wt) constructs were used for this cellular assay; expressed in transfected cells; host or cells: 293T; details: ascending concentrations of DMXAA, 12 hours
T3 sequence (Q86WV6 whole entry G230I/H232R): as the sequence (Q86WV6 whole entry G166S/H232R) above, with S166G, G230I counted along it
Method: as §3

[4] = tested on: non-small-cell lung cancer; details: with paclitaxel and carboplatin, non-small-cell lung cancer (Lara et al. 2011); cited from earlier work
[5] = tested on: hSTING^group4; experiment: ITC binding, hSTING^group4; details: isolated group4 substitutions
[6] = target: hSTING^S162A/Q266I (Homo sapiens, UniProt Q86WV6, H232R/Q266I/S162A); experiment: IFN-β luciferase reporter, hSTING^S162A/Q266I; format: cell-based; set-up: expressed in transfected cells; details: dose-response
Chain of hSTING^S162A/Q266I (Q86WV6 whole entry S162A/H232R/Q266I): as the sequence (Q86WV6 whole entry G166S/H232R) above, with S162A, S166G, Q266I counted along it
Method: as §3

[7] = target: hSTING^H232/V162 (Homo sapiens, UniProt Q86WV6, S162V); experiment: ITC binding, hSTING^H232/V162; details: Protein: 0.08 mM; Ligands: 0.8 mM; 180 mM NaCl, pH 7.5; 25° C.
Chain of hSTING^H232/V162 (Q86WV6 140-379 S162V): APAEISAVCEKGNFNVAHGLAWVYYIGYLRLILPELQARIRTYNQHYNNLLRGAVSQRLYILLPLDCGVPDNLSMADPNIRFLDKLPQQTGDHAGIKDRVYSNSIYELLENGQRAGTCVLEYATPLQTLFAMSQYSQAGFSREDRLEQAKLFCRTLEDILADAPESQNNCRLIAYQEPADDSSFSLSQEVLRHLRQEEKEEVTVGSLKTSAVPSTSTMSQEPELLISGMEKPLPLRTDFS

[8] = target: T4, hSTING Q266V (Homo sapiens, UniProt Q86WV6, H232R/Q266V); experiment: IFN-β luciferase reporter, hSTING Q266V; format: cell-based; details: 0.18 mM DMXAA, 12 hours
T4 construct: Full-length hSTING (wt and substitutions) and mSTING (wt) constructs were used for this cellular assay; expressed in transfected cells; host or cells: 293T
T4 sequence (Q86WV6 whole entry H232R/Q266V): as the sequence (Q86WV6 whole entry G166S/H232R) above, with S166G, Q266V counted along it
Method: as §3

[9] = target: T5, hSTING^Q266I (Homo sapiens, UniProt Q86WV6, H232R/Q266I); experiment: IFN-β luciferase reporter, hSTING Q266I; format: cell-based; details: 0.18 mM DMXAA, 12 hours
T5 construct: Full-length hSTING (wt and substitutions) and mSTING (wt) constructs were used for this cellular assay; expressed in transfected cells; host or cells: 293T
T5 sequence (Q86WV6 whole entry H232R/Q266I): as the sequence (Q86WV6 whole entry G166S/H232R) above, with S166G, Q266I counted along it
Method: as §3

[10] = target: T3, hSTING^G230I; experiment: Real-time PCR in STING^Gt/Gt BMDCs transduced with hSTING^G230I; format: cell-based; details: 50 μg/ml DMXAA, 3 hours
Method: as §1, §2

[11] = target: hSTING^R232/A162 (Homo sapiens, UniProt Q86WV6, H232R/S162A); experiment: ITC binding, hSTING^R232/A162; details: Protein: 0.08 mM; Ligands: 0.8 mM; 30 mM HEPES, 180 mM NaCl, pH 7.5; 25° C.
Chain of hSTING^R232/A162 (Q86WV6 140-379 S162A/H232R): as the sequence (Q86WV6 140-379 S162V) above, with V23A, H93R counted along it

[12] = target: hSTING^S162A/G230I/Q266I (Homo sapiens, UniProt Q86WV6, G230I/H232R/Q266I/S162A); experiment: Real-time PCR in STING^Gt/Gt BMDCs transduced with hSTING^S162A/G230I/Q266I; format: cell-based; details: 50 μg/ml DMXAA, 3 hours
Chain of hSTING^S162A/G230I/Q266I (Q86WV6 whole entry S162A/G230I/H232R/Q266I): as the sequence (Q86WV6 whole entry G166S/H232R) above, with S162A, S166G, G230I, Q266I counted along it
Method: as §1, §2

[13] = target: T6, hSTING S162I (Homo sapiens, UniProt Q86WV6, S162I); experiment: IFN-β luciferase reporter, hSTING S162I; format: cell-based; details: 75 μg/ml DMXAA (FIG. 14A)
T6 construct: Full-length hSTING (wt and substitutions) and mSTING (wt) constructs were used for this cellular assay; expressed in transfected cells; host or cells: HEK293T
T6 sequence (Q86WV6 whole entry S162I): as the sequence (Q86WV6 whole entry G166S/H232R) above, with S162I, S166G, R232H counted along it
Method: Luciferase expression was determined after 12 h. […] Cells were lysed in Passive Lysis Buffer.
as §3

T1 sequence (Q86WV6 whole entry H232R): as the sequence (Q86WV6 whole entry G166S/H232R) above, with S166G counted along it

up-regulation of IFN-β mRNA after DMXAA treatment [1]: did not induce the up-regulation
DMXAA-mediated IFN-β induction [2]: no effects
binding to DMXAA (ITC) [5]: no detectable binding
TΔS [7]: +7.84 Kcal/mol
ΔG [7]: -7.45 kcal/mol
ΔH [7]: +0.39 Kcal/mol
DMXAA-mediated IFN-β induction [8]: no effects
increases in IFN-β mRNA levels [10]: 2.6 fold
TΔS [11]: +8.65 Kcal/mol
ΔG [11]: -8.29 kcal/mol
ΔH [11]: +0.36 Kcal/mol
increases in IFN-β mRNA levels [12]: 4.2 fold
IFN induction by DMXAA [13]: not observed
Compound: Cc1ccc2c(=O)c3cccc(CC(=O)O)c3oc2c1C [DMXAA, 5,6-dimethylxanthenone-4-acetic acid]
IFN-β induction activity (luciferase), DMXAA [3]: almost identical IFN-β induction as hSTING^group2
outcome of human phase III trials [4]: failed
DMXAA-induced IFN-β induction [6]: enhanced DMXAA-induced IFN-β induction similar to mSTING
DMXAA-mediated IFN-β induction [9]: conferred DMXAA sensitivity at a level similar to that observed for the S162A substitution
up-regulation of CXCL10, CCL5 and IL-6 mRNAs [12]: strongest induction among the four mutants
